Assay results published in patent US20090076029A1 (Palatin Technologies, Inc., priority 2007, published 2009).

Legend:
MC1-R [1] = molecular target: T1, MC1-R; assay: Competitive inhibition assay using [I125]-NDP-α-MSH, MC1-R membranes; format: binding, mouse
T1 construct: other: 1 μM compound

hMC5-R [2] = molecular target: T2, hMC5-R; assay: Competitive inhibition assay using [I125]-NDP-α-MSH, hMC5-R membranes; format: binding, human; conditions: read-out: Ki (nM) (NDP-α-MSH) MC5-R
T2 construct: expressed in transfected cells; host or cells: HEK-293
Procedure, shortened: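 Single-concentration displacement (usually 1 μM compound) of 0.2–0.4 nM [125I]-NDP-α-MSH, run 90 min at room temperature in pH 7.2 HEPES containing MgCl2, CaCl2 and KCl. Receptor sources: transfected HEK-293 membranes for human MC3-R/MC4-R/MC5-R, B-16 mouse melanoma membranes for MC1-R. Bound counts normalised to 1 μM α-MSH-defined specific binding; triplicates averaged, values below 0% set to 0%.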

hMC5-R [3] = system: T2, hMC5-R; assay: cAMP functional assay, HEK-293 cells expressing hMC5-R; format: cell-based, human; conditions: cAMP assay at 1 μM
MC4-R [4] = system: T3, MC4-R; format: cell-based
T3 construct: expressed in transfected cells; host or cells: HEK-293
Procedure: Antagonists of AgRP. […] The experimental protocol was essentially as described above for the antagonist assay. […] HEK-293 cells expressing MC4-R were suspended in 10 mM HEPES (pH 7.5) and Earle's Balanced Salt Solution with the phosphodiesterase inhibitor IBMX. The cells were pre-incubated for 30 minutes with the test compounds over a concentration of 0.5 nM to 5000 nM. The cells were then treated with AgRP (100 nM) and incubated for 1 hour. Cells were lysed and cAMP was measured using an EIA kit (Amersham).

MC1-R [5] = system: T4, MC1-R; assay: cAMP functional assay, B-16 mouse melanoma cells expressing MC1-R; format: cell-based; conditions: cAMP assay at 1 μM
T4 construct: from B-16 mouse melanoma cells (containing MC1-R); endogenous in cells; host or cells: B-16 mouse melanoma cells

MC4-R [6] = system: T3, MC4-R; format: cell-based; remark: listed apart in the source
Description: Assay for Antagonists of AgRP in HEK-293/MC4-R Cells stimulated with Forskolin. […] AgRP causes a decrease in the basal adenylyl cyclase activity only to the extent of 40-50%. Even though the AgRP-induced decrease in cAMP levels is substantial, conventional assay methods, such as those described above, have limited sensitivity, precluding detecting small changes that are reversed by certain antagonists to AgRP. This limitation was circumvented by the use of a non-specific activator, forskolin, which directly activates adenylyl cyclase activity and raises cyclic AMP levels. Forskolin, a cell permeable diterpenoid initially isolated from Coleus forskohlii, has the ability to stimulate adenylyl cyclase activity and increase intracellular cAMP, thus activating cAMP-dependent protein kinase and other cAMP receptor proteins. See, e.g., Seamon, K. B., Daly, J. W. Forskolin: a unique diterpene activator of cyclic AMP-generating system. J. Cyclic Nucleotide Res. 7(4):201-24, 1981; Fradkin, J. E., Cook, G. H., Kilhoffer, M. C., Wolff, J. Forskolin stimulation of thyroid adenylate cyclase and cyclic 3′,5′-adenosine monophosphate accumulation. Endocrinology 111 (3):849-56, 1982; Barber, R., Goka, T. J. Adenylate cyclase activity as a function of forskolin concentration. J. Cyclic Nucleotide Protein Phosphor. Res. 10(1):23-9, 1985; and Laurenza, A., Sutkowski, E. M., Seamon, K. B. Forskolin: a specific stimulator of adenylyl cyclase or a diterpene with multiple sites of action? Trends Pharmacol. Sci. 10(11):442-7, 1989. […] The EC50 value was about 5 μM. AgRP inhibited the forskolin-induced response by 65% at a concentration of 10 nM. The difference in forskolin stimulated response and the inhibition due to AgRP in the cAMP levels was exploited to screen compounds for their ability to antagonize AgRP inhibition and […] levels of cAMP accumulation.
Experimental details for assays included incubating cells with the test compound in the presence of the inverse agonist AgRP with the extent of reversal of the AgRP effect measured by following the increase in the levels of intracellular cAMP. HEK-293 cells expressing MCR-4 were suspended in 10 mM HEPES/Earle's Balanced Salt Solution at pH 7.5 with the phosphodiesterase inhibitor IBMX, and pre-incubated for 30 minutes with the compounds (0.5-5000 nM). The cells were then treated with AgRP (10 nM) and incubated further for 30 minutes. The cells were then treated with forskolin (10 μM) and incubated for an additional 60 minutes. Cells were lysed and cAMP was measured by EIA kit (Amersham).

Compound | Ki (MC1-R [1]) [nM] | Inhibition at 1 μM (NDP-α-MSH) MC1-R (MC1-R [1]; 1 μM compound) [%] | Ki (hMC5-R [2]) [nM] | functional status at MC5-R (hMC5-R [3]) | activity on AgRP induced inverse agonism (MC4-R [4]) | functional status at MC1-R (MC1-R [5]) | effect on AgRP inhibition of forskolin-stimulated cAMP levels (MC4-R [6])
CC(C)C[C@@H]1CN(C(=O)[C@H](N)Cc2ccc(Cl)cc2Cl)[C@@H](CCCNC(=N)N)CN1CCc1ccc2ccccc2c1 [Example 4, N-{3-[1-[2(R)-Amino-3-(2,4-dichloro-phenyl)-propionyl]-5(R)-isobutyl-4-(2-naphthalen-2-yl-ethyl)-piperazin-2(S)-yl]-propyl}-guanidine] | 1360 | 21 | 160 | partial agonist (intrinsic activity between 0.1 (10%) and 0.7 (70%) is classified as a partial agonist) | antagonistic activity | no intrinsic activity (intrinsic activity below 0.1 (10%) is classified as inactive or having no intrinsic activity) | 
CC(=O)N[C@H](Cc1ccc(C)cc1C)C(=O)N1C[C@@H](C)N(CCc2ccc3ccccc3c2)C[C@@H]1CCCNC(=N)N [Example 26, N-{1(R)-(2,4-Dimethyl-benzyl)-2-[2(S)-(3-guanidino-propyl)-5(R)-methyl-4-(2-naphthalen-2-yl-ethyl)-piperazin-1-yl]-2-oxo-ethyl}-acetamide] |  |  | 43 |  |  |  | reversal of AgRP inhibition
Cc1ccc(C[C@@H](N)C(=O)N2C[C@@H](C)N(CCc3ccc4ccccc4c3)C[C@@H]2CCCNC(=N)N)c(C)c1 [Example 28, N-{3-[1-[2(R)-Amino-3-(2,4-dimethyl-phenyl)-propionyl]-5(R)-methyl-4-(2-naphthalen-2-yl-ethyl)-piperazin-2(S)-yl]-propyl}-guanidine] |  |  | 665 |  |  |  | reversal of AgRP inhibition
